Source: US6649793B1, “Process for the preparation of a N,N-diamino amino acid-β-hydroxy disuccinic acid” (Board of Trustees of Michigan State University, priority 2002, dated 2003)

Assay: Potentiometric calcium titration with calcium-selective electrode (calcium binding / chelation)
Type: physicochemical
Settings: Ca2+ binding; 50 mL of 200 ppm hardness solution at 25° C.; NH4Cl/NH4OH buffer pH=9.5, ionic strength 0.1M
Description: Calcium chloride dihydrate was purchased from Fisher Scientific. A stock solution of 0.01M […] (1000 ppm, hardness CaCO3) was prepared with distilled deionized water, and 0.03M NH4Cl/0.07M NH4OH buffer (pH=9.5, ionic strength of 0.1M). The later chemicals were obtained from Columbus Chemical Industries, Inc. Standard solution ranging from 200 ppm to 10 ppm was prepared by dilution of the stock solution with the buffer. A plot of the logarithm of calcium ion concentration vs the normalized potential was constructed prior to each titration (Rechnitz, G. A., et al., Anal. Chem. 40 696 (1968); and Nagarajan, M. K., et al., JAOCS 61 1475 (1984)). This was necessary to minimize the effect of signal fluctuations due to solution condition (ionic strength, pH, and the like). […]
The electrode was immersed in a 50 mL of 200 ppm hardness solution at 25° C., and the meter reading was taken while the solution was being stirred by magnet (Blay, J. A., et al., Anal. Lett. 4, 653 (1971)). The calcium binding solution of Compound II was added in small increments and the equilibrium-free calcium ion concentration were measured. When the meter reading indicated less than 10 ppm present in solution, the titration was stopped. […] Chelation constant (logK) of compound II was determined to be 4.23±0.09 according to the following equation [formula] […]

In the case of O=C(O)C(O)C(NCCCC[C@H](NC(C(=O)O)C(O)C(=O)O)C(=O)O)C(=O)O (stereo partly drawn) [compound II, 2N,6N-lysine-β-hydroxy disuccinic acid], the “Chelation constant (logK)” value is reported as 4.23±0.09.
